Literature values as cited in publication PMC7941644, “Identification and Development of Therapeutics for COVID-19” (ArXiv, 2021).
Structures can show the parent of a compound that is named as a salt. Where two headings read alike, the source gives them in different places.

Tests used:
SARS-CoV-2 [1] = system: SARS-CoV-2
SARS-CoV-1 [2] = details: mouse, in vivo
COVID-19 [3] = details: ivermectin preliminary; HCQ and lopinavir-ritonavir ref 144
COVID-19 [4] = system: COVID-19; design: method as in PMID 33031764
COVID-19 [5] = details: vs SOC alone
COVID-19 [6] = system: COVID-19
COVID-19 [7] = system: COVID-19; design: method as in PMID 33492523; details: mild to moderate symptoms, in addition to SOC; p = 0.06
Vero E6 cells = details: read-out: 90% effective concentration (EC90)
SARS-CoV-2 [8] = details: SARS-CoV-2 infection of Vero cells
SARS-CoV-1 [9] = details: Vero E6 cells
COVID-19 [10] = system: COVID-19; design: method as in doi:10.1101/2020.06.22.20137273
IL-12 = system: IL-12; design: method as in PMID 8902882
IL-10 = system: IL-10; design: method as in PMID 8902882
COVID-19 [11] = system: COVID-19; remark: listed apart in the source
COVID-19 [12] = system: COVID-19; remark: listed apart in the source
COVID-19 [13] = system: COVID-19; design: method as in ref 210; combination ref 208; details: phase 2 portion; bamlanivimab alone ref 210; combination ref 208
COVID-19 [14] = system: COVID-19; design: method as in ref 145 = [145]; 145. August 6, 2021: Early Treatment of COVID-19 with Repurposed Therapies: The TOGETHER Adaptive Platform Trial (Edward Mills, PhD, FRCP) Rethinking Clinical Trials ( 2021 - 08 - 11 ) https://rethink; details: placebo group 107; preliminary analysis as of August 6, 2021
SARS-CoV-2 [15] = system: SARS-CoV-2; design: method as in PMID 32251768; details: Vero-hSLAM; at concentrations much higher than existing dosage guidelines
COVID-19 [16] = system: COVID-19; design: method as in PMID 33065103
COVID-19 [17] = system: COVID-19; design: method as in PMID 33175880
COVID-19 [18] = system: COVID-19; design: method as in PMID 33662102; details: 400 patients
SARS-CoV-2 [19] = system: SARS-CoV-2; design: method as in PMID 32142651; details: lung cells in vitro
COVID-19 [20] = system: COVID-19; remark: listed apart in the source
COVID-19 [21] = system: COVID-19; remark: listed apart in the source
COVID-19 [22] = details: significant when intubated patients excluded
COVID-19 [23] = details: p < 0.001
COVID-19 [24] = details: 95% CI 0.376–0.547, p < 0.001
COVID-19 [25] = system: COVID-19; remark: listed apart in the source
COVID-19 [26] = system: COVID-19; remark: listed apart in the source
COVID-19 [27] = system: COVID-19; remark: listed apart in the source
COVID-19 [28] = details: compared to placebo
COVID-19 [29] = details: vs SOC
COVID-19 [30] = system: COVID-19; remark: listed apart in the source
COVID-19 [31] = system: COVID-19; remark: listed apart in the source
SARS-CoV-2 [32] = details: second interim analysis, 600 mg daily; control 3
COVID-19 [33] = details: days 3–6; study design severely limited
COVID-19 [34] = details: treatment vs control groups
SARS-CoV-2 [35] = system: SARS-CoV-2; remark: listed apart in the source
COVID-19 [36] = details: HCQ arm vs control
SARS-CoV-2 [37] = details: control 16.8%, p < 0.001

## O=c1c2ccccc2[se]n1-c1ccccc1 [ebselen]
SARS-CoV-2 [1]
  antiviral effect in SARS-CoV-2-infected Vero cells: strongest potency in reducing the viral load

## poly(I:C)
SARS-CoV-1 [2]
  effect when administered prior to infection: protective effects

## lopinavir-ritonavir
COVID-19 [3]
  effect on COVID-19 outcomes: no effect
COVID-19 [4]
  effect on COVID-19-related mortality: no effect

## COC(=O)OCOc1c2n(ccc1=O)N([C@@H]1c3ccccc3SCc3c1ccc(F)c3F)[C@@H]1COCCN1C2=O [baloxavir marboxil]
COVID-19 [5]
  effect on viral clearance at day 14 and secondary outcomes: no significant effect

## Cc1cccc(C)c1OCC(=O)N[C@@H](Cc1ccccc1)[C@@H](O)C[C@H](Cc1ccccc1)NC(=O)[C@H](C(C)C)N1CCCNC1=O [lopinavir]
COVID-19 [6]
  effect on COVID-19-related mortality: no effect

## CCN(CC)CCCC(C)Nc1ccnc2cc(Cl)ccc12 (centres unmarked) [CQ, chloroquine]
COVID-19 [7]
  hospital stay: 15.89 days
Vero E6 cells
  EC90: 6.9 µM
SARS-CoV-2 [8]
  inhibition of viral replication: effective in inhibiting viral replication
SARS-CoV-1 [9]
  inhibition of viral entry: inhibited viral entry of SARS-CoV-1

## C[C@@H]1C[C@H]2[C@@H]3CCC4=CC(=O)C=C[C@]4(C)[C@@]3(F)[C@@H](O)C[C@]2(C)[C@@]1(O)C(=O)CO [dexamethasone, 9α-fluoro-16α-methylprednisolone]
COVID-19 [10]; all patients, 6 mg per day for up to 10 days, SOC 24.6%, p < 0.001
  28-day mortality rate: 21.6%
COVID-19 [10]; patients breathing independently at randomization, SOC 14.0%
  28-day mortality: 17.8%
COVID-19 [10]; patients receiving oxygen supplementation at randomization, SOC 26.2%
  28-day mortality: 23.3%
COVID-19 [10]; patients ventilated at randomization, SOC 41.4%
  28-day mortality: 29.3%
IL-12
  effect on IL-12 production: dose-dependent inhibition of IL-12 production
IL-10
  effect on IL-10: not to affect IL-10

## NC(=O)c1nc(F)cnc1O [favipiravir, 6-fluoro-3-hydroxy-2-pyrazinecarboxamide]
COVID-19 [7]
  hospital stay: 13.29 days
COVID-19 [11]; 35 favipiravir, 45 control patients
  time to viral clearance by RT-PCR: four
COVID-19 [11]; control 56%
  patients with adverse side effects: 11%
COVID-19 [11]; day 14, control 62%, p = 0.004
  improvement rate of lung CT scans: 91%
COVID-19 [5]
  effect on viral clearance at day 14 and secondary outcomes: no significant effect
COVID-19 [12]
  effect on viral clearance at four days (secondary endpoint): significant effect
  tolerability: generally well-tolerated

## bamlanivimab: human mAb derived from convalescent plasma of a recovered COVID-19 patient
COVID-19 [13]
  effect on viral load: able to accelerate the reduction in viral load

## COCCCC/C(=N\OCCN)c1ccc(C(F)(F)F)cc1 [fluvoxamine]
COVID-19 [14]
  patients progressed to hospitalization for COVID-19: 74

## CC[C@H](C)[C@H]1O[C@]2(CC[C@@H]1C)C[C@@H]1C[C@@H](C/C=C(\C)[C@@H](O[C@H]3C[C@H](OC)[C@@H](O[C@H]4C[C@H](OC)[C@@H](O)[C@H](C)O4)[C@H](C)O3)[C@@H](C)/C=C/C=C3\CO[C@@H]4[C@H](O)C(C)=C[C@@H](C(=O)O1)[C@]34O)O2 [ivermectin]
SARS-CoV-2 [15]
  inhibition of viral replication: inhibit viral replication
COVID-19 [16]
  all-cause mortality: reduced all-cause mortality
COVID-19 [17]
  clinical outcomes or viral clearance: no difference in clinical outcomes or viral clearance
COVID-19 [18]
  duration of symptoms: no effect on the duration of symptoms
COVID-19 [3]
  effect on COVID-19 outcomes: no effect on COVID-19 outcomes

## CN(C)C(=O)COC(=O)Cc1ccc(OC(=O)c2ccc(NC(=N)N)cc2)cc1 [camostat mesylate]
SARS-CoV-2 [19]
  block of viral entry: block the entry of SARS-CoV-2 into lung cells

## TCZ: humanized monoclonal antibody that binds the insoluble and soluble receptor of IL-6
COVID-19 [20]; 2 of 62 admitted after TCZ available, 11 of 23 (47.8%) before
  patients dying: 3.2%
COVID-19 [20]; CI 0.004–0.347, p = 0.004
  multivariate HR, survival: 0.035
COVID-19 [21]; SOC 32%, p = 0.006
  progression to invasive medical ventilation: 0%
COVID-19 [21]; SOC 48%, p = 0.066
  mortality: 25%
COVID-19 [21]; SOC 72%, p = 0.002
  progression to death and/or ICU admission: 25%
COVID-19 [22]
  mortality, TCZ vs SOC: did not differ
COVID-19 [23]; 19 studies
  HR, survivorship: 0.41
COVID-19 [23]; excluding studies that administered a steroid alongside TCZ
  HR, survivorship: 0.04
COVID-19 [24]
  odds ratio of mortality: 0.453
COVID-19 [25]
  change in symptoms following treatment: rapid improvement in symptoms
COVID-19 [26]; 95% CI 1.12–1.34, p < 0.0001
  rate ratio, hospital discharge within 28 days: 1.22
COVID-19 [26]; RECOVERY combined with seven smaller randomized control trials, 95% CI 0.79–0.96, p = 0.005
  rate ratio, 28-day mortality: 0.87
COVID-19 [26]; SOC alone 33%
  28-day mortality: 29%
COVID-19 [26]; TCZ vs SOC, 95% CI 0.77–0.96, p = 0.007
  rate ratio, 28-day mortality: 0.86
COVID-19 [26]; combined analysis of RECOVERY with smaller RCTs
  reduction in 28-day mortality: 13%
COVID-19 [26]; living patients, SOC 47%
  probability of hospital discharge within 28 days: 54%
COVID-19 [26]; out of 2,022 participants receiving TCZ
  participants with adverse reactions determined to be associated with the intervention: three
COVID-19 [27]; 14-day period, CI 0.40–0.92, p = 0.020
  adjusted HR, progression to invasive medical ventilation and/or death: 0.61
COVID-19 [27]; control 20%
  death rate: 7%
COVID-19 [27]; control group 4%, p < 0.0001
  secondary infections: 24%

## sotrovimab
COVID-19 [28]
  rates of adverse events: comparable, and in some cases lower
COVID-19 [28]; 583 patients
  more effective in reducing progression to the primary endpoint (hospitalized for more than 24 hours or died within 29 days): 85%

## CCN(CCO)CCCC(C)Nc1ccnc2cc(Cl)ccc12 (centres unmarked) [HCQ, hydroxychloroquine]
SARS-CoV-2 [8]
  inhibition of viral replication: effective in inhibiting viral replication
COVID-19 [29]
  time to fever break and time to cough relief: decreased both average time to fever break and average time to cough relief
other
  risk with short-term use: not associated with additional risk
COVID-19 [30]; compared to no-HCQ group
  adjusted HR, risk of death: 2.61
COVID-19 [30]; men, median age 65, no-HCQ group 14.1%
  rate of death: 27.8%
COVID-19 [31]; day 3, 95% CI −0.28 to 0.29
  difference in viral load between HCQ and control groups: 0.01
COVID-19 [31]; day 7, 95% CI −0.44 to 0.29
  difference in viral load between HCQ and control groups: −0.07
COVID-19 [31]; p = 0.38
  difference in time to complete resolution of symptoms: -2 days
SARS-CoV-2 [32]
  individuals who had contracted COVID-19: 4
COVID-19 [3]
  effect on COVID-19 outcomes: no effect
COVID-19 [33]
  virological clearance by nasopharyngeal swab: higher rates of virological clearance
COVID-19 [34]
  virological clearance rate, time to virological clearance, time to body temperature normalization: comparable outcomes
SARS-CoV-2 [35]; HCQ + SOC, SOC 21 days, p = 0.97
  median time to symptom alleviation: 19 days
SARS-CoV-2 [35]; SOC plus HCQ vs SOC, 95% CI −10.3% to 18.5%
  estimated difference in negative conversion rate of SARS-CoV-2 in 28 days: 4.1%
SARS-CoV-2 [35]; SOC+HCQ, 0% in SOC group, p = 0.004
  diarrhea: 10%
SARS-CoV-2 [35]; SOC+HCQ, SOC only 8.8%
  patients reporting adverse outcomes: 30%
COVID-19 [36]
  increase in cardiac events: 0.4 percentage points
SARS-CoV-2 [37]
  patients reporting side effects: 40.1%
